Results from patent US20080220056A1, “Treatment for liver disease” (UNIVERSITY OF SOUTHAMPTON, priority 2002, published 2008).
Marks after values point to notes of the source that are not given here.

Columns and labels:
[1] = test system: rat hepatic stellate cells; assay: Low molecular weight DNA fragmentation (nucleosomal ladder) in rat hepatic stellate cells; assay type: cell-based; conditions: 37.5 μmol/L gliotoxin
[2] = test system: carbon tetrachloride model of liver fibrosis; assay: Carbon tetrachloride (in vivo) model of liver fibrosis, weekly gliotoxin injection; parameters: species or system rat; conditions: for Liver α-sma staining (number of α-sma-positive cells) / Serum ALP / Serum ALT / Sirius red staining (mid intralobular μm): weekly gliotoxin injection 3 mg/kg i.p.
Procedure: Rats were randomly sorted into groups and treated with 2 mL CCl4:olive oil (1:1 [vol/vol])/kg body weight by intraperitoneal injection twice weekly to cause liver fibrosis. Control animals were treated with 1 mL olive oil/kg body weight by intraperitoneal injection. Gliotoxin was administered at up to 3 mg gliotoxin/kg body weight by intraperitoneal injection. Gliotoxin was dissolved in dimethyl sulfoxide (DMSO) as a vehicle, and control animals received DMSO alone.
At the required time, rats were killed by carbon dioxide asphyxiation and tissues removed for analysis. Serum was prepared and analyzed for alkaline phosphatase and alanine aminotransferase activities essentially as previously described. (Wright et al., Biochem. Pharmacol., (1992) 43:237-243) Histochemical staining of formalin-fixed liver sections with H&E, Sirius red, and immunochemical staining for α-smooth muscle actin were performed essentially as previously described (Iredale et al.,—1998—supra)

[3] = test system: rat hepatic stellate cells; assay: Low molecular weight DNA fragmentation (nucleosomal ladder) in rat hepatic stellate cells; assay type: cell-based; conditions: rat HSC; 1.5 μmol/L; up to four hours
Procedure: Hepatic stellate cells cultured in 35-mm diameter dishes (Greiner) were harvested, pelleted by centrifugation and DNA fragmentation determined as outlined elsewhere (Elsharkawy et al., Hepatology (1999) 30:761-769). Propidium Iodide Flow-Activated Cell Sorting Analysis Detached cells were pelleted by centrifugation, washed in PBS, and resuspended in HYPO buffer (0.1% wt/vol) Na3Citrate and 0.1% (wt/vol) Triton™ X-100 containing […] propidium iodide and incubated for 1 hour. The cells were then analyzed by fluorescence-activated cell sorter (FACS) with a Becton Dickinson (San Jose, Calif.) FACScan instrument using a 488 nm excitation wavelength with a band pass filter set at 530 nm. Attached cells were scraped in HYPO buffer after washing cells with PBS.
The effect of gliotoxin on the cleavage of DNA to a nucleosomal ladder was examined because this phenomenon is characteristic of apoptosis. Culture activated (14-day) rat hepatic stellate cells in six well plates were treated with either 0.05% (vol/vol) DMSO for four hours or 1.5 μmol/L gliotoxin for zero hours, half an hour, one hour, two hours or four hours. At each time point, both detached and attached cells were harvested together and low molecular weight DNA (20,000 g supernatant) fragmentation determined as outlined in the materials and methods section. At least three separate experiments were performed. 1 kilobase DNA ladder (Promega) was used as a molecular weight marker.
The effect of various compounds on DNA laddering was then determined. Culture-activated (14-day) rat hepatic stellate cells in six-well plates were treated with:
After fours hours of treatment, DNA fragmentation was determined.
Culture activated (14 day) rat hepatic stellate cells in six well plates were treated with: • (a) 0.05% (vol/vol) DMSO; • (b) 1.5 μmol/L gliotoxin; • (c) 1.5 μmol/L gliotoxin with 100 μmol/L tamoxifen; • (d) 1.5 μmol/L gliotoxin with […] actinomycin d; • (e) 1.5 μmol/L gliotoxin with 10 μmol/L cycloheximide; • (f) 1.5 μmol/L gliotoxin with 10 μmol/L cyclosporin; • (g) 1.5 μmol/L gliotoxin with […] m-iodobenzylguanidine; • (h) 1.5 μmol/L gliotoxin with 50 μmol/L quin-2-am; • (i) 50 μmol/L guin-2-am alone; • (j) 250 μmol/L m-iodobenzylguanidine; • (k) 10 μmol/L cyclosporin; • (l) 10 μmol/L cycloheximide; • (m) 1 μg/ml actinomycin d; or • (n) 100 μmol/L tamoxifen.
After four hours of treatment, DNA fragmentation was determined as outlined in Materials and Methods.

[4] = test system: mitochondrial permeability transition in rat hepatic stellate cells; assay: Confocal microscopy of calcein/TMRM (mitochondrial permeability transition); assay type: cell-based; conditions: 1.5 μmol/L gliotoxin
Procedure: Intracellular calcium concentrations were examined by preloading activated hepatic stellate cells seeded onto 35-mm diameter dishes with 2.5 μmol/L Fluo-3AM for two hours. Mitochondrial integrity was determined by coloading cells with […] TMRM and 1 μmol/M calcein-AM for three hours. After loading, the culture medium was removed and the cells were washed extensively with confocal buffer (145 mmol/L NaCl, 5 mml/L KCl, 1 mmol/L MgSO4, 1 mmol/L NaH2PO4, 10 mmol/L HEPES, 25 mmol/L glucose, 1 mmol/L CaCl2 and 2 mg/mL bovine serum albumin, pH 7.4) and incubated at 37° C. in 2 mL confocal buffer containing 1.5 μmol/L gliotoxin or DMSO vehicle control.
Fluorescence images were collected at 1 μm intervals using an Olympus BX50WI microscope fitted with the Biorad microradiance confocal scanning system.
Fluo-3 and calcein fluorescence were excited at 488 nm and collected at 515-530 nm using a band width filter. TMRM was excited at 543 nm and collected at wavelengths greater than 570 nm.
Culture activated rat hepatic cells (14 day) were loaded with calcein (green fluorescence) and TMRM (red fluorescence) and then treated with either 0.05% (vol/vol) DMSO vehicle or alternatively 1.5 μmol/L gliotoxin. Green fluorescence and red fluorescence were imaged at regular time points as outlined in Materials and Methods and the results obtained were typical for at least three separate experiments.

[5] = test system: rat hepatic stellate cells; assay: Trypan blue exclusion of treated rat hepatic stellate cells; assay type: cell-based; conditions: rat HSC; 1.5 μmol/L gliotoxin or 200 μmol/L chlorpromazine
[6] = target: T1, recombinant human caspase-3 (Homo sapiens, UniProt P42574); assay: Direct effect on recombinant caspase-3; assay type: biochemical; conditions: TIMP-1 285-2850 ng/ml, 1 hour preincubation
T1 construct: purchased Calbiochem
T1 sequence (P42574 29-175 limits assumed): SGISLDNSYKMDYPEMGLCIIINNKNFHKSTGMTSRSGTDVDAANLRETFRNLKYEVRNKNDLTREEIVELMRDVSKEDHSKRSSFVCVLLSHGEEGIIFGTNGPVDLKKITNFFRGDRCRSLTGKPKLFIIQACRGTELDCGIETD
T1 sequence (P42574 176-277 limits assumed): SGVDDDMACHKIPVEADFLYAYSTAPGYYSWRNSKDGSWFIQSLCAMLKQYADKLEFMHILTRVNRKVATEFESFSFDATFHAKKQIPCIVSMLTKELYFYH
Procedure: Apoptosis was quantified by a colorimetric assay for caspase-3 activity (Promega) according to the manufacturer's instructions.
To exclude a direct effect of TIMP-1 on caspase-3 activity, recombinant human caspase-3 (Calbiochem) was incubated with TIMP-1 in varying concentrations (285-2850 ng/ml) for 1 hour before caspase-3 substrate was added to the reaction.

Compound	level of DNA cleavage at high concentration versus lower concentrations [1]	liver serum enzymes caused by carbon tetrachloride treatment ([2]; gliotoxin administered during CCl4 treatment)	number of activated hepatic stellate cells and thickness of fibrotic bands ([2]; gliotoxin administered during the liver insult (CCl4))	hepatotoxicity of long term administration ([2]; weekly gliotoxin)	Liver α-sma staining (number of α-sma-positive cells) ([2]; CCl4 twice weekly 4 weeks)	Serum ALP ([2]; CCl4 twice weekly 4 weeks)	Serum ALT ([2]; CCl4 twice weekly 4 weeks)	Sirius red staining (mid intralobular μm) ([2]; CCl4 twice weekly 4 weeks)	Liver α-sma staining (number of α-sma-positive cells) ([2]; no CCl4 (olive oil 4 weeks))	Serum ALP ([2]; no CCl4 (olive oil 4 weeks)) [μ/mL]	Serum ALT ([2]; no CCl4 (olive oil 4 weeks)) [μ/mL]	Sirius red staining (mid intralobular μm) ([2]; no CCl4 (olive oil 4 weeks)) [μm]	cleavage of DNA to a nucleosomal ladder [3]	TMRM fluorescence (mitochondrial permeability) [4]	0.1% (wt/vol) trypan blue exclusion (membrane integrity) [5]	direct effect on caspase-3 activity [6]
CN1C(=O)[C@]23CC4=CC=C[C@H](O)[C@H]4N2C(=O)[C@@]1(CO)SS3 [gliotoxin]	reduction in the level of DNA cleavage detected	significantly reduces the levels of liver serum enzymes	significantly reduces the number of activated hepatic stellate cells and thickness of fibrotic bands	no evidence that long term administration of gliotoxin is itself hepatotoxic	6 ± 1.2	429 ± 25^a μ/mL	300 ± 111^b μ/mL	4.6 ± 3.1^£ μm	1.4 ± 1.38	249 ± 26	89 ± 58	0	time dependent increase in DNA cleavage to a nucleosomal ladder	loss of TMRM fluorescence at four hours	detached cells that excluded 0.1% (wt/vol) trypan blue	
TIMP-1: recombinant tissue inhibitor of matrix metalloproteases 1 (Biogenesis)																did not reduce caspase-3 activity directly
